Among the data in patent US11225505B2, “Antimicrobial polymyxin derivative compounds” (MONASH UNIVERSITY, priority 2015, dated 2022) are Minimum inhibitory concentration values, retold here.

≈ marks a conversion by molar mass, not a printed value. Where a SMILES comes first, the peptide text is derived from it. Bridges are numbered along the chain shown (N, C = ends). [ ]: non-standard residue; d: D form. The star is where a group is joined. X58 = Cn1cc(CC(=O)*)c2ccccc21; X22 = Cn1c(C(=O)*)cc2ccccc21; X23 = O=C(c1cc2ccccc2[nH]1)*; X56 = Cn1cc(C(=O)*)c2ccccc21; X27 = O=C(c1sc2ccccc2c1Cl)*; Dab = NCC[C@H](N)C(=O)O; Abu = CC[C@H](N)C(=O)O; Dap = NC[C@H](N)C(=O)O Some results are limits rather than exact numbers.

Holding throughout (assay type): cell-based
Assay [1] relates to Enterobacter cloacae FADDI-EC001. The following applies: FADDI-EC001. Summed up:
(§1)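 Broth microdilution MIC per CLSI in cation-adjusted Mueller-Hinton broth, lipopeptides tested as TFA salts. Polymyxin B sulphate served as control.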

The subject of assay [2] is Pseudomonas aeruginosa FADDI-PA01. The following applies: FADDI-. An outline of the steps: (§2)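 Standard CLSI (M100-S24) microdilution in cation-adjusted broth gives the MIC for each strain. Test compounds are TFA-salt lipopeptides; the comparator is polymyxin B sulphate.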
Assay [3] deals with Acinetobacter baumannii FADDI-AB034. As to conditions: FADDI-AB034. Summed up: as §2
For assay [4], the system named is Klebsiella pneumoniae FADDI-KP032. As to conditions: FADDI-KP032. An outline of the steps: as §2
The test system of assay [5] is Pseudomonas aeruginosa ATCC 27853. The following applies: ATCC 27853. Summed up:
as §2

For assay [6], the system named is Klebsiella pneumoniae Kp BM1. As to conditions: Kp BM1. Summed up: as §1
In assay [7] the test system is Enterobacter cloacae FADDI-EC006. As to conditions: FADDI-EC006. Summed up: as §2
The test system of assay [8] is Acinetobacter baumannii ATCC 17978. The following applies: ATCC 17978. Summed up: as §2
The test system of assay [9] is Klebsiella pneumoniae FADDI-KP022. The following applies: FADDI-KP022. Summed up: as §2
Assay [10] deals with Enterobacter cloacae FADDI-EC003. The following applies: FADDI-EC003. Summed up:
as §2

The test system of assay [11] is Pseudomonas aeruginosa FADDI-PA022. As to conditions: FADDI-PA022. An outline of the steps: as §2
The test system of assay [12] is Pseudomonas aeruginosa FADDI-PA038. The following applies: FADDI-PA038. An outline of the steps:
as §2

Assay [13] relates to Acinetobacter baumannii FADDI-AB030. Briefly: microbe, parasite or virus in culture. As to conditions: FADDI-AB030. An outline of the steps:
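Broth microdilution MIC in cation-adjusted Mueller-Hinton broth per CLSI M100-S24; lipopeptides tested as TFA salts. FADDI-AB030 is a multidrug-resistant clinical isolate. Polymyxin B sulphate served as control.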

As to `CC[C@@H]1NC(=O)[C@@H](CC(C)C)NC(=O)[C@H](CCN)NC(=O)[C@@H](NC(=O)[C@H](CN)NC(=O)[C@@H](NC(=O)[C@H](CCN)NC(=O)c2sc3ccccc3c2Cl)[C@@H](C)O)CCNC(=O)[C@H]([C@@H](C)O)NC(=O)[C@H](CCN)NC(=O)[C@H](CCN)NC1=O` [Compound 61] (X27-[Dab]T[Dap][Dab][Dab][dL][Abu][Dab][Dab]T; lactam 4-C), the Minimum inhibitory concentration in assay [1] is 0.25 µg/mL (≈ 0.212 µM); in assay [2], below 0.125 µg/mL; in [3], below 0.125 µg/mL; in assay [4] it was below 0.125 µg/mL; in assay [5], 0.25 µg/mL (≈ 0.212 µM); in assay [6], 0.25 µg/mL (≈ 0.212 µM). Besides, the Minimum inhibitory concentration in assay [7] is below 0.125 µg/mL; in assay [8], below 0.125 µg/mL; in assay [9] it was below 0.125 µg/mL; in assay [10], below 0.125 µg/mL; in assay [11], 0.25 µg/mL (≈ 0.212 µM); in [12], 0.25 µg/mL (≈ 0.212 µM). The Minimum inhibitory concentration in assay [13] is below 0.125 µg/mL.

On to `CC[C@@H]1NC(=O)[C@@H](CC(C)C)NC(=O)[C@H](CCN)NC(=O)[C@@H](NC(=O)[C@H](CN)NC(=O)[C@@H](NC(=O)[C@H](CCN)NC(=O)Cc2cn(C)c3ccccc23)[C@@H](C)O)CCNC(=O)[C@H]([C@@H](C)O)NC(=O)[C@H](CCN)NC(=O)[C@H](CCN)NC1=O` [Compound 62] (X58-[Dab]T[Dap][Dab][Dab][dL][Abu][Dab][Dab]T; lactam 4-C), for which the Minimum inhibitory concentration is below 0.125 µg/mL in assay [1]; 1 µg/mL (≈ 0.863 µM) in [2]; 0.5 µg/mL (≈ 0.432 µM) in assay [3]; below 0.125 µg/mL in assay [4]; 0.5 µg/mL (≈ 0.432 µM) in assay [5]; 0.25 µg/mL (≈ 0.216 µM) in assay [6]. For the same molecule, the Minimum inhibitory concentration is 0.5 µg/mL (≈ 0.432 µM) in assay [7]; 0.5 µg/mL (≈ 0.432 µM) in assay [8]; below 0.125 µg/mL in assay [9]; 0.25 µg/mL (≈ 0.216 µM) in assay [10]; 0.5 µg/mL (≈ 0.432 µM) in [11]; 0.5 µg/mL (≈ 0.432 µM) in assay [12]. The molecule further displayed a Minimum inhibitory concentration in [13] of 0.5 µg/mL (≈ 0.432 µM).

As for `CC[C@@H]1NC(=O)[C@@H](CC(C)C)NC(=O)[C@H](CCN)NC(=O)[C@@H](NC(=O)[C@H](CN)NC(=O)[C@@H](NC(=O)[C@H](CCN)NC(=O)c2cn(C)c3ccccc23)[C@@H](C)O)CCNC(=O)[C@H]([C@@H](C)O)NC(=O)[C@H](CCN)NC(=O)[C@H](CCN)NC1=O` [Compound 63] (X56-[Dab]T[Dap][Dab][Dab][dL][Abu][Dab][Dab]T; lactam 4-C), the Minimum inhibitory concentration in assay [1] is below 0.125 µg/mL; in assay [2], below 0.125 µg/mL; in [3], 1 µg/mL (≈ 0.874 µM); in assay [4] it was below 0.125 µg/mL; in assay [5] it was 0.5 µg/mL (≈ 0.437 µM); in assay [6], below 0.125 µg/mL. The Minimum inhibitory concentration in assay [7] was 2 µg/mL (≈ 1.75 µM); in assay [8] it was 1 µg/mL (≈ 0.874 µM); in assay [9], below 0.125 µg/mL; in [10], 2 µg/mL (≈ 1.75 µM); in [11] it was 0.25 µg/mL (≈ 0.218 µM); in assay [12], 0.5 µg/mL (≈ 0.437 µM). In [13], this molecule registered a Minimum inhibitory concentration of 0.5 µg/mL (≈ 0.437 µM).

For `CC(C)C[C@H]1NC(=O)[C@H](CCN)NC(=O)[C@@H](NC(=O)[C@H](CN)NC(=O)[C@@H](NC(=O)[C@H](CCN)NC(=O)c2cc3ccccc3n2C)[C@@H](C)O)CCNC(=O)[C@H]([C@@H](C)O)NC(=O)[C@H](CCN)NC(=O)[C@H](CCN)NC(=O)[C@H]([C@@H](C)O)NC1=O` [Compound 64] (X22-[Dab]T[Dap][Dab][Dab][dL]T[Dab][Dab]T; lactam 4-C), the Minimum inhibitory concentration in assay [1] was 1 µg/mL (≈ 0.862 µM); in assay [2], 0.5 µg/mL (≈ 0.431 µM); in [3], 1 µg/mL (≈ 0.862 µM); in [4], 0.5 µg/mL (≈ 0.431 µM); in [5], 0.5 µg/mL (≈ 0.431 µM); in [6], 0.5 µg/mL (≈ 0.431 µM). Besides, the Minimum inhibitory concentration came to 2 µg/mL (≈ 1.72 µM) in assay [7]; 2 µg/mL (≈ 1.72 µM) in assay [8]; 0.25 µg/mL (≈ 0.215 µM) in assay [9]; 1 µg/mL (≈ 0.862 µM) in [10]; 0.25 µg/mL (≈ 0.215 µM) in assay [11]; 1 µg/mL (≈ 0.862 µM) in assay [12]. This molecule came in with a Minimum inhibitory concentration in [13] of 1 µg/mL (≈ 0.862 µM).

Regarding `CC(C)C[C@H]1NC(=O)[C@H](CCN)NC(=O)[C@@H](NC(=O)[C@H](CN)NC(=O)[C@@H](NC(=O)[C@H](CCN)NC(=O)c2cc3ccccc3n2C)[C@@H](C)O)CCNC(=O)[C@H]([C@@H](C)O)NC(=O)[C@H](CCN)NC(=O)[C@H](CCN)NC(=O)[C@H](C)NC1=O` [Compound 65] (X22-[Dab]T[Dap][Dab][Dab][dL]A[Dab][Dab]T; lactam 4-C), the Minimum inhibitory concentration in assay [1] turned out to be 0.5 µg/mL (≈ 0.442 µM); in assay [2] it was 0.25 µg/mL (≈ 0.221 µM); in assay [3], 1 µg/mL (≈ 0.885 µM); in [4] it was 0.5 µg/mL (≈ 0.442 µM); in assay [5], 0.5 µg/mL (≈ 0.442 µM); in assay [6], 0.25 µg/mL (≈ 0.221 µM). In addition, the Minimum inhibitory concentration worked out at 1 µg/mL (≈ 0.885 µM) in assay [7]; 1 µg/mL (≈ 0.885 µM) in [8]; 0.25 µg/mL (≈ 0.221 µM) in assay [9]; 1 µg/mL (≈ 0.885 µM) in [10]; 0.25 µg/mL (≈ 0.221 µM) in assay [11]; 0.5 µg/mL (≈ 0.442 µM) in [12]. For the same molecule, the Minimum inhibitory concentration in [13] worked out at 0.5 µg/mL (≈ 0.442 µM).

As for `CC(C)C[C@H]1NC(=O)[C@H](CCN)NC(=O)[C@@H](NC(=O)[C@H](CN)NC(=O)[C@@H](NC(=O)[C@H](CCN)NC(=O)c2cc3ccccc3[nH]2)[C@@H](C)O)CCNC(=O)[C@H]([C@@H](C)O)NC(=O)[C@H](CCN)NC(=O)[C@H](CCN)NC(=O)[C@H]([C@@H](C)O)NC1=O` [Compound 66] (X23-[Dab]T[Dap][Dab][Dab][dL]T[Dab][Dab]T; lactam 4-C), the Minimum inhibitory concentration in [1] worked out at 0.5 µg/mL (≈ 0.436 µM); in assay [2], 2 µg/mL (≈ 1.74 µM); in assay [3], 1 µg/mL (≈ 0.872 µM); in [4] it was 1 µg/mL (≈ 0.872 µM); in assay [5], 0.5 µg/mL (≈ 0.436 µM); in assay [6], 0.5 µg/mL (≈ 0.436 µM). The Minimum inhibitory concentration in [7] stood at 1 µg/mL (≈ 0.872 µM); in assay [8] it was 2 µg/mL (≈ 1.74 µM); in [9], 0.5 µg/mL (≈ 0.436 µM); in [10], 0.5 µg/mL (≈ 0.436 µM); in assay [11] it was 0.25 µg/mL (≈ 0.218 µM); in [12], 2 µg/mL (≈ 1.74 µM). The molecule also registered a Minimum inhibitory concentration in assay [13] of 1 µg/mL (≈ 0.872 µM).

For `CC(C)C[C@H]1NC(=O)[C@H](CCN)NC(=O)[C@@H](NC(=O)[C@H](CN)NC(=O)[C@@H](NC(=O)[C@H](CCN)NC(=O)c2cc3ccccc3[nH]2)[C@@H](C)O)CCNC(=O)[C@H]([C@@H](C)O)NC(=O)[C@H](CCN)NC(=O)[C@H](CCN)NC(=O)[C@H](C)NC1=O` [Compound 67] (X23-[Dab]T[Dap][Dab][Dab][dL]A[Dab][Dab]T; lactam 4-C), the Minimum inhibitory concentration was found to be 0.5 µg/mL (≈ 0.448 µM) in assay [1]; 0.5 µg/mL (≈ 0.448 µM) in [2]; 1 µg/mL (≈ 0.896 µM) in assay [3]; 0.5 µg/mL (≈ 0.448 µM) in [4]; 0.25 µg/mL (≈ 0.224 µM) in assay [5]; 0.5 µg/mL (≈ 0.448 µM) in assay [6]. For the same molecule, the Minimum inhibitory concentration was found to be 1 µg/mL (≈ 0.896 µM) in assay [7]; 2 µg/mL (≈ 1.79 µM) in assay [8]; 0.5 µg/mL (≈ 0.448 µM) in assay [9]; 0.5 µg/mL (≈ 0.448 µM) in [10]; 0.25 µg/mL (≈ 0.224 µM) in assay [11]; 1 µg/mL (≈ 0.896 µM) in [12]. This molecule also came in with a Minimum inhibitory concentration in assay [13] of 1 µg/mL (≈ 0.896 µM).
